Assay results taken from patent US8937065B2, “Compositions and methods for modulating a kinase” (Clevexel Pharma, priority 2011, dated 2015).
In brackets after ≈: the same amount, converted by molar mass.

Key:
[1] = physchem; details: pH 7.4, aqueous buffer, thermodynamic from solid
Experimental: The test concentration was 100 μM (0% of DMSO for test compounds, 1% of DMSO for reference compounds). The test system was a 100 mM phosphate buffer (pH 7.4). Sample size was duplicates (n=2) and the bioanalytical method was LC-UV (Agilent-1200). Mobile phase A: H2O-1% TFA, B: MeOH-1% TFA; column Boston Symmetrix ODS-H (2.1×50 mm, 5 μm); LC conditions 0.4 mL/Min.
Assay Procedure • 1. For reference compounds: • Add 8 μL of 10 mM DMSO stock solution into 792 μL of 100 mM phosphate buffer (n=2). Final conc.=100 μM (1% of DMSO)
For test compounds: • Add 8 μL of 10 mM DMSO stock solution into the tubes (n=2). • Dry the samples under nitrogen. • Add 800 μL of 100 mM phosphate buffer into the tubes. Final conc.=100 μM (0% of DMSO) • 2. Sample tubes are shaken for 1 hour (1000 rpm) at room temperature and 37° C. • 3. Samples are centrifuged (10 min-12000 rpm) to precipitate un-dissolved particles. • 4. Supernatants are transferred to new tubes • 5. Concentrations of the supernatants after centrifugation are determined by LC-UV detection.

[2] = molecular target: T1, JAK3 (Homo sapiens, UniProt P52333); assay: JAK3 enzymatic activity assay (Z'-LYTE Biochemical Kinase Assay, 2 hr preincubation at 4° C.); details: cell free, 1% DMSO, read-out: JAK3 activity cell free (2 hr preincubation at (4° C.) Kj)
T1 construct: purchased Invitrogen, Madison, Wis
T1 sequence (P52333 1-1124): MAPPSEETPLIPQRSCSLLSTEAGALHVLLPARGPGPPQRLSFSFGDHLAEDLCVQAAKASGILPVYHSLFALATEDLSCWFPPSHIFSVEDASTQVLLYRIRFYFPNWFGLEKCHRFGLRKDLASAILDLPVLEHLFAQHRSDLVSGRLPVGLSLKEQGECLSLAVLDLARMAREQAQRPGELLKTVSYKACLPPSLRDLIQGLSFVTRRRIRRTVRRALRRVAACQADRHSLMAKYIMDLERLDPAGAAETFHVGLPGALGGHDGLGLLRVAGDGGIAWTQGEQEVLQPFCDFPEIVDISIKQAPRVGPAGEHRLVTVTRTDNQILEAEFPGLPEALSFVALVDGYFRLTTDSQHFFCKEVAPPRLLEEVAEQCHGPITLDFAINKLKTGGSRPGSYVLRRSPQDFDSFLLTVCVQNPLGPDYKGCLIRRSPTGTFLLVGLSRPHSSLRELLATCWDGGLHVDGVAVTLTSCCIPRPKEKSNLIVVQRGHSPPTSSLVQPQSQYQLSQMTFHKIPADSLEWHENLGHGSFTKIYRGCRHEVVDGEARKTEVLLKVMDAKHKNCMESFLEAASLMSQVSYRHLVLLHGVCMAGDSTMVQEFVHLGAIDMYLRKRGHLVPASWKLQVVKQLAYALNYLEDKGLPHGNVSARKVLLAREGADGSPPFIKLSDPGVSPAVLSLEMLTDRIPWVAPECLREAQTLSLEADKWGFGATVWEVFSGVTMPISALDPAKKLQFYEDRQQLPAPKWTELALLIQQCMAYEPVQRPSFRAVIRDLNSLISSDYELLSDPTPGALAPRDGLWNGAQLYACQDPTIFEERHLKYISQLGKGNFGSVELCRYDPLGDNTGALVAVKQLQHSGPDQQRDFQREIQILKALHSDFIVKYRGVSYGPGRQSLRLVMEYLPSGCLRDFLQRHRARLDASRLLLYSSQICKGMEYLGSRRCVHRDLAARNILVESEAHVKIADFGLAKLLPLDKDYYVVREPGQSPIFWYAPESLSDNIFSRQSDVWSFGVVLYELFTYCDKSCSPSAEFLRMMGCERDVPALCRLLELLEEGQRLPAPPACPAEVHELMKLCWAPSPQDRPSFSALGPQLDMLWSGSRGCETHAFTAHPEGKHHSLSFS
Experimental: The assays were performed according to manufacturer's protocols, except that prior to the kinase reaction they were pre-incubated for 2 hours at 4° C., in order to be able to assay for time-dependent inhibition.
In addition to the compound, each 10 μL JAK3 kinase reaction contained 0.43-1.89 ng JAK3 and 2 μM peptide substrate in 50 mM HEPES (pH 7.5), 0.01% BRIJ-35, 10 mM MgCl2 and 1 mM EGTA. The kinase reaction was allowed to proceed for 1 hour.

[3] = test system: Interleukin 4/STAT6-STAT6-bla RA1; assay: Interleukin 4/STAT6-STAT6-bla RA1 inhibition (IL-4-stimulated STAT6 activity in Ramos cells); assay type: cell-based; details: Homo sapiens, Ramos; Table 1, 6th column; read-out: Cell based IL4 stimulation IC50
Experimental: The inhibition of Interleukin 4/STAT6-STAT6-bla RA1 (activated by IL-4) by several compounds was determined using the Screening Protocol and Assay Conditions (Invitrogen, Madison, Wis.). The assays were performed according to manufacturer's protocols. Example 4, Cell-line Specific Protocols IL-4-stimulated STAT6 activity in Ramos cells for details.
Mechanism-based inhibition assays using compound 7A (Table 1) were performed using GeneBLAzer® Technology (Invitrogen Corporation), according to manufacturer specifications. […] In this state, excitation of the coumarin results in fluorescence resonance energy transfer to the fluorescein moiety and emission of green light. […] Excitation of the coumarin in the presence of Beta-lactamase activity results in a blue fluorescence signal. […]
An activator assay screen was run to obtain the EC80 concentration of the known activator to add in step 3. • 1. […] 4 μL of the EC80 concentration of activator, as determined in an Activator assay, was added to all wells containing compound and known inhibitor to bring the final assay volume to 40 μL. • 4. […] The assay plate was read on a fluorescence plate reader (Tecan Safire) and the data is analyzed. […]
STAT6-bla RA1 cells were thawed. […] The plate was read on a fluorescence plate reader.

Compound	solubility at 1 h ([1]; Solubility (μM) Mean)	solubility at 1 h ([1]; Solubility in PBS)	also measured
Cl.O=C(CN1CCOCC1)Nc1cccc(-c2nc(-c3c[nH]c(C(=O)N4CCCC4)c3)cs2)c1 [9X (sample 2), 2-morpholino-N-(3-(4-(5-(pyrrolidine-1-carbonyl)-1H-pyrrol-3-yl)thiazol-2-yl)phenyl)acetamide hydrochloride salt]	51.9 µM	10 to 80 µM	–
O=C(c1cc(-c2csc(-c3ccccc3)n2)c[nH]1)N1CCCC1 [11A]	–	–	Ki [2]: 1.1 to 10 µM; IC50 [3]: 0.11 to 1 µM
CC(=O)N1CCN(c2ccc(OCC3COC(Cn4ccnc4)(c4ccc(Cl)cc4Cl)O3)cc2)CC1 (centres unmarked) [Ketoconazole, reference compound]	15.9 µM (≈ 8.45 µg/mL)	15.9 µM (≈ 8.45 µg/mL)	–
CC(C)NCC(O)COc1cccc2ccccc12 (centres unmarked) [Propranolol, reference compound]	–	–	solubility at 1 h ([1]; Solubility (μM) Mean, kinetic solubility, 100 mM phosphate buffer (pH 7.4), test concentration 100 μM, n=2, LC-UV): > 100 µM; solubility at 1 h ([1]; Solubility in PBS, 100 mM phosphate buffer pH 7.4, test concentration 100 μM): ~100 µM (≈ 25.9 µg/mL)
